Data from patent US20100260737A1, “COMBINATION BETWEEN AN ISOTHIOCYANATE AND LEVODOPA FOR PARKINSON'S DISEASE TREATMENT” (priority 2007, published 2010).

Columns and labels:
SH-SY5Y cells [1] = experiment: H2O2-induced neuronal apoptosis after pre-treatment; assay type: cell-based; conditions: for toxic effects in SH-SY5Y cells: SUL 0.63 μM, L-DOPA 25 μM
Procedure: It was also evaluated whether the combination could have synergistic effects against neuronal apoptosis induced by H2O2, an oxidant agent in the CNS. In particular, apoptosis is measured 15 h later than 3 h treatment with H2O2 (300 μM).

[2] = preliminary phase I study (Shapiro et al. 2006); cited from earlier work
neurons = conditions: prolonged SUL treatment, in vitro; cited from earlier work
SH-SY5Y cells [3] = experiment: L-DOPA-induced neurotoxicity, pulse/chase treatment, Annexin-V/propidium iodide double staining

SMILES | toxic effects in SH-SY5Y cells (SH-SY5Y cells [1]) | H2O2-induced apoptosis after L-DOPA pre-treatment (SH-SY5Y cells [1]; pre-treatment 24 h, L-DOPA 25-100 μM tested, effect at more than 50 μM, H2O2 300 μM 3 h, read 15 h later, FIG. 4) | toxicity in humans [2] | effect against 1 methyl-4-phenyl-1,2,3,6-tetrahydropyridine (neurons) | protection of neurons against 6-hydroxydopamine (neurons) | protection of neurons against H2O2 damage (neurons) | L-DOPA-induced apoptosis, post-treatment (SH-SY5Y cells [3]; SUL 2.5 μM added after L-DOPA (400 μM) treatment, FIG. 3) | L-DOPA-induced apoptosis, co-treatment (SH-SY5Y cells [3]; SUL 0.63-2.5 μM co-treated with L-DOPA 400 μM, FIG. 2)
N[C@@H](Cc1ccc(O)c(O)c1)C(=O)O [L-DOPA, 3,4-dihydroxyphenylalanine] | did not show any toxic effects | significantly decreased H2O2-induced apoptosis |  |  |  |  |  | 
C[S+]([O-])CCCCN=C=S (stereo not drawn) [SUL, 4-(methylsulfinyl)butyl isothiocyanate] | did not show any toxic effects |  | absence of toxicity | does not show any effect | protects neurons | protects neurons | significant decrease of apoptosis | dose-dependent inhibitory effect
